{"source": "patent US20130101527A1", "about": "“METHODS, COMPOUNDS AND PHARMACEUTICAL COMPOSITIONS FOR TREATING NEUROLOGICAL DISORDERS” (priority 2011, published 2013)", "key": {"[1]": {"system": "Spontaneous Brain Activity in Healthy Adults", "assay": "MEG recordings of spontaneous activity, spectral analysis and ICA localization before and after self-administration of 1-octanol", "assay_type": "in vivo, human", "conditions": "all subjects, five times after octanol (grand mean, s.e.m), FIG. 2"}, "[2]": {"system": "GABAA Receptors", "conditions": "Kurata et al., Mol Pharmacol. 1999, cited from earlier work"}, "[3]": {"system": "healthy adults", "assay": "Seven-scale questionnaire before and after octanol administration", "assay_type": "in vivo, human", "conditions": "0.1 mg/kg, questionnaire before, 5-10 min and 120 min after", "description": "(§1) The database comprises 29 healthy adults from 25-52 years of age (12 women and 17 men).\n(§2) Octanol is a straight chain fatty alcohol with 8 carbon atoms CH3(CH2)7OH, and was formulated in an oral mucosal delivery format with appropriate organoleptic characteristics. It was self-administered at 0.1 mg/kg. Participants were instructed to use the spray as they would a breathe spray.\nA seven-scale questionnaire was used before and at 5-10 minutes and 120 minutes, respectively, after octanol administration to examine the level of relaxation, concentration, worry, sleepiness, stress, pain and the octanol taste."}, "[4]": {"system": "T-type (Cav3.1) calcium channels", "conditions": "in vitro; cited from earlier work"}, "[5]": {"system": "Spontaneous Brain Activity in Healthy Adults", "assay": "MEG recordings of spontaneous activity, spectral analysis and ICA localization before and after self-administration of 1-octanol", "assay_type": "in vivo, human", "description": "as §1\nSpontaneous activity was recorded using a 275 channel (CTF) MEG. Six 7-min recordings were made with the eyes closed. One recording was made before self-administration of 1-Octanol. The others were made at 15, 30, 60, 90 and 120 min after.\nA multi-taper approach, which provides reduced-variance calculations of frequency, was used to generate frequency spectra from each set of recordings. Changes in the power spectrum after octanol was determined by first calculating the mean spectra energy (MSE) in 2 Hz frequency bands starting at 2.5 Hz. Logarithmic transformation was applied to the power data and then the mean spectral energy (MSE) was calculated for each band before and after octanol administration. The difference in MSE before and after octanol was then calculated for each participant and the grand mean calculated (FIG. 3).\nas §2\nIndependent component analysis (ICA) was carried out on the sensor data using the Infomax EEGLab algorithm. The magnetic field described by the ICs was localized onto a volumetric source space constructed from a population-averaged MRI using a recursive weighted minimum norm algorithm."}, "[6]": {"system": "harmaline-induced tremor", "conditions": "cited from earlier work"}, "[7]": {"system": "patients with essential tremor", "conditions": "cited from earlier work"}, "[8]": {"system": "TCD in an animal model", "conditions": "cited from earlier work"}, "[9]": {"conditions": "cited from earlier work"}, "[10]": {"molecular_target": "T1, saliva-amylase (Homo sapiens, UniProt P0DUB6)", "T1 sequence (P0DUB6 16-511)": "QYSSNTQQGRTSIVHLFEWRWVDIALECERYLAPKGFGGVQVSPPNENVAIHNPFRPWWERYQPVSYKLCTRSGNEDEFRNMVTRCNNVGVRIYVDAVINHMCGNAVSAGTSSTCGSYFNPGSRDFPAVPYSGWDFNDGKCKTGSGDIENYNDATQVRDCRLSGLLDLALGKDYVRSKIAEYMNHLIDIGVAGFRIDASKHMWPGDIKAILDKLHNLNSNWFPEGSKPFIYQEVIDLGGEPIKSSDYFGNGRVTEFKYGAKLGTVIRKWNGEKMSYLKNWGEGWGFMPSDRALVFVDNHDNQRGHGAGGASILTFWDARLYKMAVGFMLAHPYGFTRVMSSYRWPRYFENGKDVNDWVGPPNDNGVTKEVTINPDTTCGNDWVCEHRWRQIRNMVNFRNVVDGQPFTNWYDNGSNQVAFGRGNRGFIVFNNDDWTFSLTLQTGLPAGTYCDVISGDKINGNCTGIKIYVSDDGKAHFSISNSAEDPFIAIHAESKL", "conditions": "cited from earlier work"}, "[11]": {"conditions": "example subject with low frequency peaks, FIG. 5"}, "[12]": {"conditions": "healthy adults, 0.1 mg/kg self-administered oral mucosal spray, MEG"}}, "data": [{"smiles": "CCCCCCCCO", "note": "[Example 1-octanol, 1-octanol]", "values": [{"measurement": "Difference in Mean Spectral Energy, alpha range", "setting": "[1]", "result": "clear increase"}, {"measurement": "Difference in Mean Spectral Energy, delta range", "setting": "[1]", "result": "decrease"}, {"measurement": "low doses at which octanol is a slight allosteric potentiator of GABA", "setting": "[2]", "result": "1-10 μm"}, {"measurement": "action on GABA at a higher dose", "setting": "[2]; higher dose", "result": "allosteric inhibitor"}, {"measurement": "general, self-reported measures of wellness", "setting": "[3]", "result": "no effect"}, {"measurement": "inferior olivary oscillations", "setting": "[4]", "result": "reduces"}, {"measurement": "low threshold calcium currents in thalamic and inferior olivary neurons", "setting": "[4]", "result": "reversibly reduces"}, {"measurement": "number of ICA components in the alpha range", "setting": "[5]; after octanol administration, FIG. 6", "result": "increased"}, {"measurement": "Localization of the alpha rhythms to the posterior part of the brain (ICA)", "setting": "[5]; before and 90 minutes after octanol, FIG. 4", "result": "not affected"}, {"measurement": "alpha range peak (8.5-10.4 Hz)", "setting": "[5]; [11]", "result": "increased"}, {"measurement": "delta range peaks (2.5-4.4 Hz)", "setting": "[5]; [11]", "result": "reduced"}, {"measurement": "abnormal, delta range activity", "setting": "[5]; [12]", "result": "reducing"}, {"measurement": "normal, alpha range activity", "setting": "[5]; [12]", "result": "increases"}, {"measurement": "beta range activity", "setting": "[5]; healthy subjects, MEG", "result": "did not promote a significant increase"}, {"measurement": "lower alpha band power", "setting": "[5]; healthy subjects, MEG", "result": "significantly increased"}, {"measurement": "power spectra in the low alpha range", "setting": "[5]; most of the subjects, FIG. 1", "result": "increase and broadening"}, {"measurement": "power at lower frequencies", "setting": "[5]; most subjects, FIG. 3", "result": "no change"}, {"measurement": "low frequency peaks", "setting": "[5]; some subjects, FIG. 7", "result": "not affected"}, {"measurement": "gamma range activity", "setting": "[5]; some subjects, MEG", "result": "increase"}, {"measurement": "higher theta range activity", "setting": "[5]; some subjects, MEG", "result": "tendency for potentiating"}, {"measurement": "ICA components with delta range peaks", "setting": "[5]; two hours after octanol administration, FIG. 6", "result": "no components"}, {"measurement": "harmaline-induced tremor", "setting": "[6]", "result": "prevents"}, {"measurement": "tremor in patients with essential tremor", "setting": "[7]", "result": "reduce tremor"}, {"measurement": "effect in TCD in an animal model", "setting": "[8]", "result": "effective"}, {"measurement": "accepted daily intake", "setting": "[9]; as flavoring agent in food and cosmetics, FDA and Council of Europe", "result": 1, "unit": "mg/kg"}, {"measurement": "liver toxicity", "setting": "[9]; higher dosages", "result": "associated with liver toxicity"}]}, {"smiles": "OC[C@H]1O[C@@H]2O[C@H]3[C@H](O)[C@@H](O)[C@@H](O[C@H]4[C@H](O)[C@@H](O)[C@@H](O[C@H]5[C@H](O)[C@@H](O)[C@@H](O[C@H]6[C@H](O)[C@@H](O)[C@@H](O[C@H]7[C@H](O)[C@@H](O)[C@@H](O[C@H]8[C@H](O)[C@@H](O)[C@@H](O[C@H]9[C@H](O)[C@@H](O)[C@@H](O[C@H]1[C@H](O)[C@H]2O)O[C@@H]9CO)O[C@@H]8CO)O[C@@H]7CO)O[C@@H]6CO)O[C@@H]5CO)O[C@@H]4CO)O[C@@H]3CO", "note": "[γ-CD, γ-cyclodextrin]", "values": [{"measurement": "susceptibility to saliva-amylase degradation", "setting": "[10]", "result": "highly susceptible"}]}]}
